{"source": "patent US20170266237A1", "about": "“Generation of Brown Adipose Tissue (BAT) from Mesenchymal Cells” (National University of Singapore, priority 2012, published 2017)", "molecules": {"B1": {"name": "BMP7: bone morphogenetic protein, R&D Systems 354-BP, 125 ng/ml pre-treatment 3 days prior to induction (protein, UniProt P18075 293-431, looked up)", "Bone morphogenetic protein 7": "STGSKQRSQNRSKTPKNQEALRMANVAENSSSDQRQACKKHELYVSFRDLGWQDWIIAPEGYAAYYCEGECAFPLNSYMNATNHAIVQTLVHFINPETVPKPCCAPTQLNAISVLYFDDSSNVILKKYRNMVVRACGCH"}}, "type_in_all_cases": "cell-based, human", "key": {"[1]": {"tested_on": "UCP1 mRNA", "assay": "Quantitative PCR of UCP1 mRNA after forskolin stimulation of adipogenically induced MSCs", "details": "adipogenically induced MSCs stimulated with forskolin", "description": "b) Adipogenic Induction of Mesenchymal Stem Cells (MSC). MSCs were seeded at an initial density of about 10.5×10^4 cells/cm^2 in well plates and grown to confluence. Adipogenic differentiation was induced via three cycles of 4 days of induction, followed by 3 days of maintenance. The basal media used in the differentiation process composed of high glucose Dulbecco's modified Eagle's medium (HG DMEM, Gibco) supplemented with Glutamax, 10% fetal bovine serum, 100 units/ml penicillin and […] streptomycin The standard white adipogenic induction media is supplemented with 3-isobutyl-1methylxanthine (0.5 mM), indomethacin (0.2 mM), dexamethasone (1 μM) and insulin (10 μg/ml). For brown adipocyte differentiation, cells were pre-treated with BMP7 (R&D Systems 354-BP, 125 ng/ml) 3 days prior to induction. […]\n(§1) e) Quantitative PCR to assess expression of pan-adipocyte and brown adipocyte genes. […] Real time quantitative polymerase chain reactions (RT-PCR) were performed and monitored on a real-time PCR instrument (Stratagene) using Maxima™ SYBR Green/ROX qPCR Master Mix (K0222, Fermentas). […] Relative gene expression levels were determined using the ΔΔ-Ct method with the geometric mean of human TATA-box binding protein (TBP) and ribosomal phosphoprotein P0 (RPLP0) levels as an endogenous control."}, "[2]": {"tested_on": "adipogenically induced mesenchymal stem cells", "assay": "Nile Red adherent cytometry of cytoplasmic lipid accumulation / lipolysis", "details": "for lipolysis after isoproterenol (emptying of lipid droplets): 16 hrs of 5 μM isoproterenol, white and brown adipogenically induced MSCs", "description": "b) Adipogenic Induction of Mesenchymal Stem Cells (MSC). MSCs were seeded at an initial density of about 10.5×10^4 cells/cm^2 in well plates and grown to confluence. Adipogenic differentiation was induced via three cycles of 4 days of induction, followed by 3 days of maintenance. The basal media used in the differentiation process composed of high glucose Dulbecco's modified Eagle's medium (HG DMEM, Gibco) supplemented with Glutamax, 10% fetal bovine serum, 100 units/ml penicillin and […] streptomycin The standard white adipogenic induction media is supplemented with 3-isobutyl-1methylxanthine (0.5 mM), indomethacin (0.2 mM), dexamethasone (1 μM) and insulin (10 μg/ml). For brown adipocyte differentiation, cells were pre-treated with BMP7 (R&D Systems 354-BP, 125 ng/ml) 3 days prior to induction. The brown adipogenic induction media is supplemented with 3-isobutyl-lmethylxanthine (0.5 mM), indomethacin (0.2 mM), dexamethasone (1 μM), insulin (10 μg/ml), triiodothyronine (1 nM) and Rosiglitazone (1 μM). Basal media alone was used during the maintenance phase. For conditions treated with macromolecular crowding (+MMC), a cocktail of macromolecules (+MMC), consisting of Ficoll 70 (37.5 mg/ml) and Ficoll 400 (25 mg/ml) was added to the basal media (High glucose DMEM, Gibco) throughout the differentiation process (during both induction and maintenance phases).\nc) Stimulation with forskolin or isoproterenol. After the 3-week adipogenic differentiation, cells were incubated with 10 μM forskolin (Sigma) or 5 μM isoproterenol (Sigma) for 4 h or 16 h before analysis, to mimic nor-adrenergic stimulation in culture.\nd) Nile Red Adherent Cytometry to assess area of cytoplasmic lipid accumulation. After 21 days (corresponding to three complete induction cycles), cell cultures were rinsed with PBS, fixed in 4% formaldehyde (10 min; RT) then co-stained for 30 min with Nile Red (Sigma-Aldrich; 5 μg/ml), for cytoplasmic lipid droplets and 4′,6-diamidino-2-phenylindole (DAPI; 0.5 μg/ml) for nuclear DNA as described previously. Adherent fluorescent cytometry was based on 9 sites per well imaged with a coolSNAP HQ camera attached to a Nikon TE2000 microscope at 2× magnification, covering 83% of total well area. Nile Red was viewed under a rhodamine filter [Ex572 nm/Em630 nm] while DAPI fluorescence was assessed with a DAPI filter [Ex350 nm/Em465 nm]. Measured Nile Red events were thresholded and measured by an image analysis software (MetaMorph 6.3v3). Extent of adipogenic differentiation was quantified by area of Nile Red fluorescence from thresholded events normalized to nuclei count based on detected DAPI fluorescence. End data corresponded to total area of lipid droplets present per well relative to cell number."}, "[3]": {"tested_on": "UCP1 mRNA", "assay": "Quantitative PCR of UCP1 mRNA expression in adipogenically induced MSCs", "details": "3-week adipogenic induction of MSCs", "description": "a) Mesenchymal Stem Cell Culture. Human bone-marrow derived mesenchymal stem cells (MSCs) were obtained commercially (Cambrex) at passage 2 (p2) and cultured in a basic culture medium composed of low glucose Dulbecco's modified Eagle's medium (LG DMEM, Gibco) supplemented with Glutamax, 10% fetal bovine serum, 100 units/ml penicillin and […] streptomycin. Cells were maintained at 37° C. in a humidified atmosphere of 5% CO2, with medium change twice per week. To prevent spontaneous differentiation, cells were maintained at subconfluent levels prior to being detached using TrypLE™ Express (Gibco), passaged at 1:3 and cultured to generate subsequent passages. Directed differentiation was carried out with cells between passage 6 (p6) and 8 (p8).\nb) Adipogenic Induction of Mesenchymal Stem Cells (MSC). […]\nas §1"}}}
{"molecule": "C=C[C@@]1(C)CC(=O)[C@]2(O)[C@@]3(C)[C@@H](O)CCC(C)(C)[C@@H]3[C@H](O)[C@H](OC(C)=O)[C@@]2(C)O1", "note": "[forskolin]", "values": [{"measurement": "additional UCP1 mRNA upregulation on forskolin stimulation", "setting": "[1]", "result": 10, "unit": "fold"}, {"measurement": "reduction of Nile Red positive area (factor)", "setting": "[2]; brown induction protocol, 16 hrs after forskolin stimulus", "result": 2.14}, {"measurement": "reduction of hypothetical triglyceride volume (factor)", "setting": "[2]; modeled as sphere, brown induced MSCs under crowding, after forskolin treatment", "result": 3}]}
{"molecule": "CC(C)NCC(O)c1ccc(O)c(O)c1", "note": "(stereo not drawn) [isoproterenol]", "values": [{"measurement": "lipolysis after isoproterenol (emptying of lipid droplets)", "setting": "[2]", "result": "leads to emptying of lipid droplets"}, {"measurement": "lipolysis after isoproterenol (emptying of lipid droplets)", "setting": "[2]; listed as Isoproterenol", "result": "stronger lipolytic effect on adipocytes that had been differentiated under a BAT induction protocol"}]}
{"molecule": "B1", "values": [{"measurement": "effect on UCP1 mRNA expression (in words)", "setting": "[3]", "result": "only modestly increases"}]}
